Test results reported in patent US20170281650A1 (priority 2014, published 2017).
“Also recorded” adds a separate entry of the source. Read-outs that look alike come from different tables or passages of the source.

How the values were obtained:
[1] = system: Golden Syrian hamsters; test: Analysis of liver cholesterol and dihydrocholesterol in hamster hyperlipidemia model; type: in vivo; conditions: 6 weeks
Experimental: (§1) Six different experimental diets were prepared by mixing the ingredients according to Table 1 and blending these mixtures with a gelatin solution (20 g/L) in a ratio of 200 g composition per liter of solution. Once the gelatin had set, the product were cut into pieces of approximately 10 g cubes and stored frozen at −80° C. until use.
(§2) After this acclimation period the hamsters were randomly divided into six test groups and fed one of the experimental diets for another six weeks.
Cholesterol content in organs was determined by a standard method. Cholesterol in the tissue sample was calculated according to the amount of internal standard 5α-cholestanol added.

[2] = system: Golden Syrian hamsters; test: Analysis of plasma lipoproteins (TC, HDL, non-HDL cholesterol, TG) in hamster hyperlipidemia model; type: in vivo; conditions: for plasma TC compared with the HCD group / plasma TG compared with the HCD group / plasma non-HDL-C compared with the HCD group: end of week 6; for dose dependence of the cholesterol-lowering effect: 0.2% versus 0.3% in diet
Experimental: as §1
(§3) 46 male Golden Syrian hamsters (n=46; body weights=110-120 g) were housed in wire-bottomed cages at 23° C. in an animal room with 12-hour light-dark cycle (one per cage). All hamsters were maintained on a standard cereal based diet for two weeks.
as §2
Plasma total cholesterol (TC) and triacylglycerols (TG) were quantified using commercial enzymatic kits from Infinity (Waltham, Mass., U.S.A) and Stanbio Laboratories (Boerne, Tex., U.S.A.), respectively. To determine high-density lipoprotein cholesterol (HDL), low-density lipoprotein cholesterol (LDL) and very low-density lipoprotein cholesterol (VLDL) were first precipitated with a commercial kit (Stanbio) containing phosphotungstic acid and magnesium chloride. HDL cholesterol in supernatant phase was measured similarly as done for TC. Non-HDL cholesterol was calculated by deducing HDL cholesterol from TC.

[3] = system: LDL receptor; test: mRNA of hepatic LDL receptor; type: in vivo, Golden Syrian hamsters; conditions: liver, 6 weeks
[4] = system: Golden Syrian hamsters; type: in vivo; conditions: 6 weeks
[5] = system: liver X receptor alpha (LXRα); test: Immunoblot of hepatic LXRα protein mass; type: in vivo, Golden Syrian hamsters; conditions: western blot, 6 weeks
[6] = Food intake, body and organ weight in hamster hyperlipidemia model; type: in vivo, Golden Syrian hamsters; conditions: 6 weeks
Experimental: as §1, §3, §2

[7] = system: Golden Syrian hamsters; test: Analysis of fecal neutral and acidic sterols in hamster hyperlipidemia model; type: in vivo; conditions: for increase in excretion of cholesterol and its microbial derivatives compared with the HCD control: feces
Experimental: as §1, §2
Neutral and acidic sterols in the feces were quantified by a standard method using gas chromatography (GC). In brief, the total fecal sample (300 mg) from each hamster was freeze-dried, ground and well mixed. 0.3 mg of 5α-cholestanol was added as an internal standard for quantification of neutral sterols by GC analysis. The remaining aqueous layer was saved for the analysis of acidic sterols.

[8] = system: LDL receptor; test: Immunoblot of hepatic LDL receptor protein mass; type: in vivo, Golden Syrian hamsters; conditions: liver, western blot; 0.3% in high cholesterol diet, 6 weeks
[9] = 0.2% in high cholesterol diet, week 6
[10] = 0.3% in high cholesterol diet, week 6

Compound | decrease in liver cholesterol ([1]; 0.2% in high cholesterol diet) | hepatic cholesterol levels compared with the HCD control ([1]; 0.2% in high cholesterol diet) | decrease in liver cholesterol ([1]; 0.3% in high cholesterol diet) | hepatic cholesterol levels compared with the HCD control ([1]; 0.3% in high cholesterol diet) | plasma TC compared with the HCD group ([2]; 0.2% in high cholesterol diet) | plasma TG compared with the HCD group ([2]; 0.2% in high cholesterol diet) | plasma non-HDL-C compared with the HCD group ([2]; 0.2% in high cholesterol diet) | dose dependence of the cholesterol-lowering effect [2] | plasma TC compared with the HCD group ([2]; 0.3% in high cholesterol diet) | plasma TG compared with the HCD group ([2]; 0.3% in high cholesterol diet) | plasma non-HDL-C compared with the HCD group ([2]; 0.3% in high cholesterol diet) | mRNA level of the LDL receptor compared with the HCD control ([3]; 0.2% in high cholesterol diet) | mRNA level of the LDL receptor compared with the HCD control ([3]; 0.3% in high cholesterol diet) | atherosclerotic plague compared with the HCD control group ([4]; 0.2% in high cholesterol diet) | atherosclerotic plague compared with the HCD control group ([4]; 0.3% in high cholesterol diet) | LXRα protein mass ([5]; 0.2% in high cholesterol diet) | LXRα protein mass ([5]; 0.3% in high cholesterol diet) | epididymal fat pad weight compared with the control ([6]; 0.2% in high cholesterol diet) | kidney weight compared with HCD ([6]; 0.2% in high cholesterol diet) | liver weight compared with the HCD group ([6]; 0.2% in high cholesterol diet) | further results
CC(C)CCC[C@@H](C)[C@H]1CC[C@H]2[C@@H]3CC[C@H]4C[C@@H](O)CC[C@]4(C)[C@H]3CC[C@]12C [DHC, dihydrocholesterol] | 67.5% | significantly lower | 71.5% | significantly lower | significantly lower; also recorded: significantly reduces | significantly lower; also recorded: significantly reduces | significantly lower | not dose-dependent | significantly lower; also recorded: significantly reduces | significantly lower; also recorded: significantly reduces | significantly lower | up-regulated | up-regulated | significantly lesser | significantly lesser | up-regulated LXRα slightly | up-regulated LXRα slightly | decreased | no significant difference | decreased | DHC accumulated in the liver ([1]; 0.2% DHC in high cholesterol diet (DA)): about 2 mg DHC/g liver; reducing the liver cholesterol, compared with SA and SB (β-sitosterol) ([1]; 0.2% and 0.3% diets): more effective; DHC accumulated in the liver ([1]; 0.3% DHC in high cholesterol diet (DB)): about 2 mg DHC/g liver; reducing serum TG, compared with β-sitosterol ([2]; 0.2% and 0.3% diets): more effective than β-sitosterol; kidney weight compared with HCD ([6]; 0.3% in high cholesterol diet): reduced; liver weight compared with the HCD group ([6]; 0.3% in high cholesterol diet): decreased; Body Weight Final ([6]; 0.2% in high cholesterol diet): 115.38 ± 9.02 g; Body Weight Final ([6]; 0.3% in high cholesterol diet): 115.43 ± 7.00 g; excretion of total neutral sterols compared with corresponding SA and SB (β-sitosterol) groups ([7]; 0.2% and 0.3% diets, week 6): greater; total fecal neutral sterols excreted compared with the controls [7, 9]: greater; total fecal neutral sterols excreted compared with the controls [7, 10]: greater; increase in excretion of cholesterol and its microbial derivatives compared with the HCD control ([7]; 0.2% in high cholesterol diet): 11.5 fold; increase in excretion of cholesterol and its microbial derivatives compared with the HCD control ([7]; 0.3% in high cholesterol diet): 19.1 fold
CC[C@H](CC[C@@H](C)[C@H]1CC[C@H]2[C@@H]3CC=C4C[C@@H](O)CC[C@]4(C)[C@H]3CC[C@]12C)C(C)C [β-sitosterol, reference compound] | 30.5% | significantly lower | 38.4% | significantly lower | significantly lower | significantly lower | significantly lower | dose-dependent | significantly lower | significantly lower | significantly lower | up-regulated | up-regulated | significantly lesser | significantly lesser | significantly up-regulated | significantly up-regulated | decreased | reduced | decreased | reducing plasma TC, compared with DHC [2, 10]: more effective than DHC; reducing the formation of atherosclerotic plague, compared with DA and DB (DHC) diets ([4]; 0.2% and 0.3% diets): more effective; epididymal fat pad weight compared with the control ([6]; 0.3% in high cholesterol diet): decreased; kidney weight compared with HCD ([6]; 0.3% in high cholesterol diet): no significant difference; liver weight compared with the HCD group ([6]; 0.3% in high cholesterol diet): decreased; Body Weight Final ([6]; 0.2% in high cholesterol diet): 118.43 ± 13.74 g; Body Weight Final ([6]; 0.3% in high cholesterol diet): 112.00 ± 8.05 g; excretion of acidic sterols compared with corresponding DA and DB (DHC) groups ([7]; 0.2% and 0.3% diets, week 6): greater; total fecal neutral sterols excreted compared with the controls [7, 9]: greater; total fecal neutral sterols excreted compared with the controls [7, 10]: greater; LDL receptor protein [8]: significantly up-regulated
